# Literature values, collected in US20060216350A1, “Ganglionic blocking agents for the treatment of epithelial diseases” (priority 2005, published 2006).
# Tested on: hand warts
# Settings: patients with hand warts; Sterling et al. 2001
compound,measurement,value
O=C(O)c1ccccc1O [Salicylic acid],"clearance of warts, % of patients",67%
